One may read the IC50 as the concentration needed to halve the response being measured. In general, half-life refers to the time needed for the level to fall by half in the phase considered. Usually Papp stands for the rate of passage across a membrane or cell layer, normalised by area and donor concentration. A lower Papp goes with slow passage.

For eleven compounds, IC50, half-life and Papp results are on record in patent publication US11485728B2, “Small molecules for the treatment of autoimmune diseases and cancer” (Athos Therapeutics, Inc., priority 2020, dated 2022).

One data set concerns the target T1, CYP2D6 (Homo sapiens, UniProt P10635).
T1 construct: from tissue; host or cells: pooled human liver microsomes
The data set is described as follows: CYP-direct inhibition, CYP2D6. The class given is in vitro ADME. The conditions noted are these: human liver microsome; substrate dextromethorphan; read-out: IC50 CYP-2D6. How it is done:
(§1) Many drugs inhibit cytochrome P450 enzymes to cause clinically significant changes in the pharmacokinetics of other drugs. In vitro cytochrome P450 inhibition, can provide crucial information in evaluating potential clinical drug-drug interactions and is useful for focusing in vivo tests to areas of concern. The cytochrome P450 inhibition assay was developed by preparing a working cocktail solution consisting of six probe substrates 10 μM ethoxy-resorufin (CYP1A2), 100 μM rosiglitazone (CYP2C8), 50 μM diclofenac (CYP2C9), 300 μM S-mephenytoin (CYP2C19), 50 μM dextromethorphan (CYP2D6), and 20 μM midazolam (CYP3A4). A mixture solution consists of 140 uL of 0.286 mg/mL of pooled human liver microsome working solution and 20 uL working solutions of test articles, standard control inhibitors, or positive control placebo and 20 uL of substrate cocktail mixture working solution was prepared. The mixture solution was pre-warm in a gentle shaking bath at 37±2° C. for 5 minutes. The enzymatic reaction started by adding 20 uL of NRS working solution to the mixture solution and incubated for 10 minutes at 37±2° C. To stop the reaction, an addition of 400 μL cold stop solution (acetonitrile containing 50 ng/mL Tolbutamide as an internal standard (I.Std.) was added to the mixture solution. The final concentration of test article, inhibitors, substrates, and cofactors are noted in Table 0.1 below. Two individual samples were prepared for each test compound. The extracted samples were vortexed and then centrifuged at 4500 rpm for 7 minutes using Eppendorf Centrifuge 5910R. 200 uL of supernatant was diluting with 200 uL of 50% Methanol into 96-DW plate for LC/MS/MS analysis
(§2) Concentration-response plots are used to determine the effects of an inhibitor on an enzymatic reaction. A typical concentration-response plot provides fractional activity (Y axis) is plotted as a function of log inhibitor concentration (X axis). The data are fitted using a standard Sigmoidal dose-response equation which is also called a […] logistic equation. The concentration of compound that results in 50% inhibition of maximal activity is termed as the IC50 (inhibitor concentration yielding 50% inhibition). IC50 value is calculated using Prism GraphPad software, version 9. […].
(§3) Cytochrome P450 inhibition of a drug is a key factor in determining pharmacokinetic drug-drug interactions. The objective of this study was to evaluate the inhibition potential of G9a inhibitors on six (6) major human cytochrome P450 enzymes, including CYP1A2, CYP2C8, CYP2C9, CYP2C19, CYP2D6, and CYP3A4. Inhibition was determined by using a substrate cocktail and analyzing the rate of specific metabolites formation. The cytochrome P450 inhibition assay was developed using a cocktail consisting of six (6) probe substrates ethoxy-resorufin (CYP1A2), rosiglitazone (CYP2C8), diclofenac (CYP2C9), S-mephenytoin (CYP2C19), dextromethorphan (CYP2D6), and midazolam (CYP3A4). The cocktail was incubated in human liver microsome with NADPH regenerating system (NRS) in a shaking bath at 37±2° C. The formation of specific metabolites was monitored by LC/MS/MS. Test compound was added to the cocktail-liver microsome mixture at varying concentrations and its effect on cytochrome P450 activity was determined by analyzing the rate of specific metabolite formation. The percent inhibition was calculated and plotted with reference to the concentration, and the IC50 value for inhibition was derived by fitting the data with a using log(inhibitor) vs. normalized response with variable slope least squares fit by Graphpad Prism® software. […].

The target in another data set is T2, CYP2C19 (Homo sapiens, UniProt P33261).
T2 construct: from tissue; host or cells: pooled human liver microsomes
The data set is described as follows: CYP-direct inhibition, CYP2C19. The format is in vitro ADME. As to the method:
as §1, §2, §3

Data set [1] can be described thus: In-vitro half-life in rat liver microsomes. The format is in vitro ADME. Conditions: Rat liver microsomes 0.5 mg/mL; 1 μg/mL drug; NRS; read-out: Metabolic Half-life. Summed up: (§4)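 Compound at 1 μg/mL final was incubated with 0.5 mg/mL liver microsomes plus NADPH regenerating system at 37° C, sampled in duplicate at 0–60 min. Remaining parent was measured by LC-MS/MS, and half-life was calculated from first-order log-linear regression of % remaining versus time.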

A short description of another data set: PAMPA permeability. The conditions noted are these: PAMPA, 5 hours at RT.
Another data set has as its target T3, CYP3A4 (Homo sapiens, UniProt P08684).
T3 construct: from tissue; host or cells: pooled human liver microsomes
Kind of data set: CYP-direct inhibition, CYP3A4. The class given is in vitro ADME. As to the method:
as §1, §2, §3

A further data set concerns the target T4, CYP2C9 (Homo sapiens, UniProt P11712).
T4 construct: from tissue; host or cells: pooled human liver microsomes
The data set is described as follows: CYP-direct inhibition, CYP2C9. The class given is in vitro ADME. As to the method: as §1, §2, §3

Data set [2] is described as follows: In-vitro half-life in mouse liver microsomes. The format is in vitro ADME. Conditions: Mouse liver microsomes 0.5 mg/mL; 1 μg/mL drug; NRS; read-out: Metabolic Half-life. Summed up:
as §4

[3] abbreviates: PAMPA permeability Classification, 20 μM donor.
Setting [4] is: Permeability, Pe, 20 μM donor in PBS/MeOH 90:10.

T4 sequence (P11712 whole entry): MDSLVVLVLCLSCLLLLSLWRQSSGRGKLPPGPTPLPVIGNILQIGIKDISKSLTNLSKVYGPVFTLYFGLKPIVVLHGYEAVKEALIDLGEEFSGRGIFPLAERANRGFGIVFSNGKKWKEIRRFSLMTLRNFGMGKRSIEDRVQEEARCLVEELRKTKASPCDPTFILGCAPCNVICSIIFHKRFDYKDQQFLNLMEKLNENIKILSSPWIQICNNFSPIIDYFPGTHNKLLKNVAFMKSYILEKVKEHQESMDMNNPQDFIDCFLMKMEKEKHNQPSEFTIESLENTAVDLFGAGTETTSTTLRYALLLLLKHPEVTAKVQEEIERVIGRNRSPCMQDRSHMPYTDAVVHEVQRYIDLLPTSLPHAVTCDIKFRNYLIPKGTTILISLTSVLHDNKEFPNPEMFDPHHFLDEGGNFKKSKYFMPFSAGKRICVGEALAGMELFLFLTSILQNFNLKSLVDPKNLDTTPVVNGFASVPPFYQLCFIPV
T1 sequence (P10635 whole entry): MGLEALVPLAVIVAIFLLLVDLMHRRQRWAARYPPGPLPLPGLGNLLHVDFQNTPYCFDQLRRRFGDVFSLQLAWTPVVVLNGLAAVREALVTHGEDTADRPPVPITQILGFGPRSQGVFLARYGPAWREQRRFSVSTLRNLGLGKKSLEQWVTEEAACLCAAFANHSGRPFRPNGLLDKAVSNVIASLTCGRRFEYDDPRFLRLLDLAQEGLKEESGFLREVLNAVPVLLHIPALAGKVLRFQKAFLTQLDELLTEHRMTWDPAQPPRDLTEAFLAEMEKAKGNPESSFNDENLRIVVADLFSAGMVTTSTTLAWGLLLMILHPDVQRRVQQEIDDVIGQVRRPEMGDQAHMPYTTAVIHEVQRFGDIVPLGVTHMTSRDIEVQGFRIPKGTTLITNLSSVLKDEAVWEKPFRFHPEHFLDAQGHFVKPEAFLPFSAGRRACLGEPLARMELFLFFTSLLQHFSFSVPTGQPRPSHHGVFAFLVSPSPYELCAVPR
T3 sequence (P08684 whole entry): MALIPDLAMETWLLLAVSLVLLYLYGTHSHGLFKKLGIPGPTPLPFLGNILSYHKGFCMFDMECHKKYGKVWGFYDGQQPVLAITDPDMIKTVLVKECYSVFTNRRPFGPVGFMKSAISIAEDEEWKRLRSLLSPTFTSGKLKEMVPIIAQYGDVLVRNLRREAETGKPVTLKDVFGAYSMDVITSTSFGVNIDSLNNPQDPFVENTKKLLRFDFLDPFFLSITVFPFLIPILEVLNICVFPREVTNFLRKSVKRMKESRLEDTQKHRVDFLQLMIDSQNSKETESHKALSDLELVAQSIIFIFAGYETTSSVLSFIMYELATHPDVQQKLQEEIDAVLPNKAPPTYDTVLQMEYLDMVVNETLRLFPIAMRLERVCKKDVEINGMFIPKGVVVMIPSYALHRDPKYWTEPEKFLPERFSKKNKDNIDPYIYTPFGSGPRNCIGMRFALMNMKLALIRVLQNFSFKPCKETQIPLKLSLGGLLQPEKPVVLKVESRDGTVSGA
T2 sequence (P33261 whole entry): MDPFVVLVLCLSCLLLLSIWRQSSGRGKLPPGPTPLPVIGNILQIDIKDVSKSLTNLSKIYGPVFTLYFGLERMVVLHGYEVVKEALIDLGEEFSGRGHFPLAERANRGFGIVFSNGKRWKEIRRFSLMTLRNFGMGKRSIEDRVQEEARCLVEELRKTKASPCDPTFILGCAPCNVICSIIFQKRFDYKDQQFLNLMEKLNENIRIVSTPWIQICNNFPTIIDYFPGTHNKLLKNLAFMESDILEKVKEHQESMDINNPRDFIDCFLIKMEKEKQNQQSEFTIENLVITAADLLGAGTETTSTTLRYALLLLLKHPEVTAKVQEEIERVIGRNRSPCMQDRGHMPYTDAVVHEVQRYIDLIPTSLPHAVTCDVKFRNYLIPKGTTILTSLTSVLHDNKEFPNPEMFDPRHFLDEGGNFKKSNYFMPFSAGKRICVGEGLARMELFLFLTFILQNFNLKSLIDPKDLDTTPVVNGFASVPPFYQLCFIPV

As for `COc1cc2c(NC3CCN(C(C)C)CC3)nc(-n3ccnc3)nc2cc1OCCCN1CCCC1` [Compound 156, 2-(1H-imidazol-1-yl)-N-(1-isopropylpiperidin-4-yl)-6-methoxy-7-(3-(pyrrolidin-1-yl)propoxy)quinazolin-4-amine], the IC50 at CYP2D6 is 4.72 µM; at CYP2C19, over 100 µM; on CYP3A4 it was over 100 µM; against CYP2C9, over 100 µM. Besides, the values for the half-life at 1 μg/mL in data set [1] and in data set [2] were over 1 h and 0.988 h, respectively. In addition, the values for the Papp at 5 h, 20 μM in “PAMPA permeability” (setting [3]) and in the data set “PAMPA permeability” (setting [4]) were under 0.055 ×10⁻⁶ cm/s and 0.00225 ×10⁻⁶ cm/s, respectively.

For the compound `COc1cc2c(NC3CCN(C(C)C)CC3)nc(-n3cccn3)nc2cc1OCCCN1CCCC1` [Compound 157, N-(1-isopropylpiperidin-4-yl)-6-methoxy-2-(1H-pyrazol-1-yl)-7-(3-(pyrrolidin-1-yl)propoxy)quinazolin-4-amine], the IC50 was 64.9 µM at CYP2D6, over 100 µM on CYP2C19, over 100 µM against CYP3A4 and over 100 µM at CYP2C9. In addition, the half-life at 1 μg/mL in data set [1] and in data set [2] was over 1 h throughout. Moreover, the Papp at 5 h, 20 μM in “PAMPA permeability” (setting [3]) was under 0.055 ×10⁻⁶ cm/s; in “PAMPA permeability” (setting [4]), 0.000555 ×10⁻⁶ cm/s.

Take `COc1cc2c(N[C@H]3CCCNC3)nc(N3CCCC3)nc2cc1OCCCN1CCCC1` [Compound 158, (S)-6-methoxy-N-(piperidin-3-yl)-2-(pyrrolidin-1-yl)-7-(3-(pyrrolidin-1-yl)propoxy)quinazolin-4-amine]: the IC50 at CYP2D6 was 65.6 µM; against CYP2C19, over 100 µM; against CYP3A4, over 100 µM; against CYP2C9, over 100 µM. Also, the half-life at 1 μg/mL in data set [1] worked out at 0.55 h; in data set [2] it was 0.637 h. The Papp at 5 h, 20 μM in the data set “PAMPA permeability” (setting [3]) was under 0.055 ×10⁻⁶ cm/s; in “PAMPA permeability” (setting [4]), 0.00453 ×10⁻⁶ cm/s.

As to `COc1cc2c(N[C@@H]3CCCNC3)nc(N3CCCC3)nc2cc1OCCCN1CCCC1` [Compound 159, (R)-6-methoxy-N-(piperidin-3-yl)-2-(pyrrolidin-1-yl)-7-(3-(pyrrolidin-1-yl)propoxy)quinazolin-4-amine], the IC50 at CYP2D6 is 50.9 µM; against CYP2C19, over 100 µM; on CYP3A4, over 100 µM; against CYP2C9, over 100 µM. The half-life at 1 μg/mL in data set [1] was found to be 0.555 h; in data set [2], 0.655 h. The values for the Papp at 5 h, 20 μM in the data set “PAMPA permeability” (setting [3]) and in the data set “PAMPA permeability” (setting [4]) were under 0.055 ×10⁻⁶ cm/s and 0.0227 ×10⁻⁶ cm/s, respectively.

Take `COc1cc2c(NC3CCOCC3)nc(N3CCCC3)nc2cc1OCCCN1CCCC1` [Compound 164, 6-methoxy-2-(pyrrolidin-1-yl)-7-(3-(pyrrolidin-1-yl)propoxy)-N-(tetrahydro-2H-pyran-4-yl)quinazolin-4-amine]: the half-maximal inhibitory concentration (IC50) was 24.8 µM on CYP2D6, over 100 µM against CYP2C19, over 100 µM against CYP3A4 and over 100 µM against CYP2C9. The half-life at 1 μg/mL in data set [1] and in data set [2] was over 1 h each time. For the same compound, the Papp at 5 h, 20 μM in the data set “PAMPA permeability” (setting [3]) is under 0.055 ×10⁻⁶ cm/s; in “PAMPA permeability” (setting [4]), 0.0476 ×10⁻⁶ cm/s.

Take `COc1cc2c(NC3CCOCC3)nc(N3CCC3)nc2cc1OCCCN1CCCC1` [Compound 174, 2-(azetidin-1-yl)-6-methoxy-7-(3-(pyrrolidin-1-yl)propoxy)-N-(tetrahydro-2H-pyran-4-yl)quinazolin-4-amine]: the IC50 is 23 µM at CYP2D6, over 100 µM at CYP2C19, over 100 µM against CYP3A4 and over 100 µM on CYP2C9. The half-life at 1 μg/mL in data set [1] and in data set [2] was over 1 h throughout. The figures for the Papp at 5 h, 20 μM in “PAMPA permeability” (setting [3]) and in “PAMPA permeability” (setting [4]) were 0.055 to 1.5 ×10⁻⁶ cm/s and 0.0754 ×10⁻⁶ cm/s, respectively.

For the compound `COc1cc2c(NC3CCOCC3)nc(N3CCOCC3)nc2cc1OCCCN1CCCC1` [Compound 195, 6-methoxy-2-morpholino-7-(3-(pyrrolidin-1-yl)propoxy)-N-(tetrahydro-2H-pyran-4-yl)quinazolin-4-amine], the IC50 on CYP2D6, against CYP2C19, on CYP3A4 and at CYP2C9 was over 100 µM throughout. The half-life at 1 μg/mL in data set [1] and in data set [2] was over 1 h throughout. Further, the Papp at 5 h, 20 μM is 0.055 to 1.5 ×10⁻⁶ cm/s in “PAMPA permeability” (setting [3]) and 0.238 ×10⁻⁶ cm/s in “PAMPA permeability” (setting [4]).

In the case of `COc1cc2c(NC3CCOCC3)nc(N3CCS(=O)(=O)CC3)nc2cc1OCCCN1CCCC1` [Compound 196, 4-(6-methoxy-7-(3-(pyrrolidin-1-yl)propoxy)-4-((tetrahydro-2H-pyran-4-yl)amino)quinazolin-2-yl)thiomorpholine 1,1-dioxide], the IC50 is 84.8 µM on CYP2D6, over 100 µM against CYP2C19, over 100 µM on CYP3A4 and over 100 µM at CYP2C9. Moreover, the half-life at 1 μg/mL in data set [1] and in data set [2] was over 1 h each time. Besides, the Papp at 5 h, 20 μM in the data set “PAMPA permeability” (setting [3]) was under 0.055 ×10⁻⁶ cm/s; in the data set “PAMPA permeability” (setting [4]), 0.035 ×10⁻⁶ cm/s.

`COc1cc2c(NC3CCN(C(C)C)CC3)nc(N3CCC3)nc2cc1OCCCN1CCCC1` [Compound 234, 2-(azetidin-1-yl)-N-(1-isopropylpiperidin-4-yl)-6-methoxy-7-(3-(pyrrolidin-1-yl)propoxy)quinazolin-4-amine]: the IC50 was 77.9 µM at CYP2D6, over 100 µM against CYP2C19, over 100 µM against CYP3A4 and over 100 µM on CYP2C9. In addition, the half-life at 1 μg/mL in data set [1] and in data set [2] was over 1 h in each case. Moreover, the Papp at 5 h, 20 μM is under 0.055 ×10⁻⁶ cm/s in the data set “PAMPA permeability” (setting [3]) and 0.000285 ×10⁻⁶ cm/s in “PAMPA permeability” (setting [4]).

Consider `COc1cc2c(NC3CCN(C(C)C)CC3)nc(C#N)nc2cc1OCCCN1CCCC1` [Compound 235, 4-((1-isopropylpiperidin-4-yl)amino)-6-methoxy-7-(3-(pyrrolidin-1-yl)propoxy)quinazoline-2-carbonitrile], for which the IC50 at CYP2D6, on CYP2C19, against CYP3A4 and on CYP2C9 was over 100 µM each time. In addition, the half-life at 1 μg/mL in data set [1] and in data set [2] was over 1 h in each case. For the same compound, the Papp at 5 h, 20 μM in “PAMPA permeability” (setting [3]) was under 0.055 ×10⁻⁶ cm/s; in the data set “PAMPA permeability” (setting [4]), 0.0046 ×10⁻⁶ cm/s.

As for `COc1cc2c(NC3CCOCC3)nc(N3CCN(C)CC3)nc2cc1OCCCN1CCCC1` [Compound 236, 6-methoxy-2-(4-methylpiperazin-1-yl)-7-(3-(pyrrolidin-1-yl)propoxy)-N-(tetrahydro-2H-pyran-4-yl)quinazolin-4-amine], the IC50 at CYP2D6, at CYP2C19, against CYP3A4 and against CYP2C9 was over 100 µM in each case. For the same compound, the half-life at 1 μg/mL in data set [1] is over 1 h; in data set [2], 0.38 h. Besides, the results for the Papp at 5 h, 20 μM in the data set “PAMPA permeability” (setting [3]) and in “PAMPA permeability” (setting [4]) were under 0.055 ×10⁻⁶ cm/s and 0.0299 ×10⁻⁶ cm/s, respectively.
